From the supplement of paper PMC13207355
± gives the standard deviation of the averaged measurements.

What was measured:
Settings in all cases: exposure time: 72 h
[1] = tested on: E21 (patient-derived glioblastoma stem cells of mesenchymal subtype); assay: phenotypic distance (Euclidean, principal components) from DMSO controls (arbitrary units); higher = stronger morphological change
[2] = tested on: FT3469 (normal neural stem cell line); assay: as above
[3] = tested on: E28 (patient-derived glioblastoma stem cells of classical subtype); assay: as above
[4] = tested on: E57 (patient-derived glioblastoma stem cells of mesenchymal subtype); assay: as above
[5] = tested on: E34 (patient-derived glioblastoma stem cells of proneural subtype); assay: as above
[6] = tested on: E13 (patient-derived glioblastoma stem cells of classical subtype); assay: as above
[7] = tested on: E31 (patient-derived glioblastoma stem cells of proneural subtype); assay: as above
[8] = tested on: E21; assay: surviving fraction (nuclei count normalised to DMSO); higher = more cells surviving (less toxic)
[9] = tested on: FT3469; assay: as above
[10] = tested on: E28; assay: as above
[11] = tested on: E57; assay: as above
[12] = tested on: E34; assay: as above
[13] = tested on: E13; assay: as above
[14] = tested on: E31; assay: as above
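Throughout, for phenotypic distance (Euclidean, principal components) from DMSO controls: cell Painting imaging in 384-well plates, CellProfiler features reduced to at least 20 principal components, Euclidean distance versus same-plate DMSO vehicle wells (0.1% v/v), median over six images per well.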
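Throughout, for surviving fraction (nuclei count normalised to DMSO): nuclei counted by high-content imaging of Hoechst-stained cells in laminin-coated 384-well plates, relative to 0.1% DMSO vehicle wells, with staurosporine as cell-death control.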

CC(=O)c1cnc2ccc(-c3cc(Cl)c(O)c(Cl)c3)nc2c1N[C@H]1CC[C@H](CN(C)C)CC1 [OTSSP167]
phenotypic distance ([1]; 0.4 nM): 1.7 ± 0.33
phenotypic distance ([1]; 1.2 nM): 2.06 ± 0.15
phenotypic distance ([1]; 3.7 nM): 2.41 ± 0.065
phenotypic distance ([1]; 11.1 nM): 2.49 ± 0.12
phenotypic distance ([1]; 33.3 nM): 4.22 ± 0.35
phenotypic distance ([1]; 100 nM): 4.87 ± 0.3
phenotypic distance ([1]; 300 nM): 6.25 ± 0.65
phenotypic distance ([2]; 0.4 nM): 2.21 ± 0.61
phenotypic distance ([2]; 1.2 nM): 2.77 ± 0.063
phenotypic distance ([2]; 3.7 nM): 3.26 ± 0.47
phenotypic distance ([2]; 11.1 nM): 3.53 ± 0.41
phenotypic distance ([2]; 33.3 nM): 4.08 ± 0.32
phenotypic distance ([2]; 100 nM): 4.14 ± 0.28
phenotypic distance ([2]; 300 nM): 3.137 ± 0.02
phenotypic distance ([3]; 0.4 nM): 1.32 ± 0.36
phenotypic distance ([3]; 1.2 nM): 1.49 ± 0.21
phenotypic distance ([3]; 3.7 nM): 1.75 ± 0.072
phenotypic distance ([3]; 11.1 nM): 2.62 ± 0.37
phenotypic distance ([3]; 33.3 nM): 4.37 ± 0.37
phenotypic distance ([3]; 100 nM): 4.36 ± 0.64
phenotypic distance ([3]; 300 nM): 4.295 ± 0.011
phenotypic distance ([4]; 0.4 nM): 1.81 ± 0.58
phenotypic distance ([4]; 1.2 nM): 2.24 ± 0.063
phenotypic distance ([4]; 3.7 nM): 2.97 ± 0.38
phenotypic distance ([4]; 11.1 nM): 3.48 ± 0.47
phenotypic distance ([4]; 33.3 nM): 4.61 ± 0.12
phenotypic distance ([4]; 100 nM): 7.8122 ± 0.0049
phenotypic distance ([4]; 300 nM): 5.83 ± 0.19
phenotypic distance ([5]; 0.4 nM): 1.46 ± 0.39
phenotypic distance ([5]; 1.2 nM): 1.96 ± 1
phenotypic distance ([5]; 3.7 nM): 1.73 ± 0.11
phenotypic distance ([5]; 11.1 nM): 2.43 ± 0.65
phenotypic distance ([5]; 33.3 nM): 3.89 ± 0.15
phenotypic distance ([5]; 100 nM): 2.89 ± 0.067
phenotypic distance ([5]; 300 nM): 2.9 ± 0.41
phenotypic distance ([6]; 0.4 nM): 1.66 ± 1
phenotypic distance ([6]; 1.2 nM): 1.67 ± 0.18
phenotypic distance ([6]; 3.7 nM): 2.455 ± 0.011
phenotypic distance ([6]; 11.1 nM): 3.33 ± 0.64
phenotypic distance ([6]; 33.3 nM): 6.59 ± 0.11
phenotypic distance ([6]; 100 nM): 7.76 ± 0.18
phenotypic distance ([6]; 300 nM): 8.64 ± 0.25
phenotypic distance ([7]; 0.4 nM): 1.92 ± 0.57
phenotypic distance ([7]; 1.2 nM): 2.29 ± 0.21
phenotypic distance ([7]; 3.7 nM): 2.8 ± 0.15
phenotypic distance ([7]; 11.1 nM): 2.81 ± 0.06
phenotypic distance ([7]; 33.3 nM): 2.5 ± 0.18
phenotypic distance ([7]; 100 nM): 5.33 ± 0.78
phenotypic distance ([7]; 300 nM): 7.69 ± 2.1
surviving fraction ([8]; 0.4 nM): 0.988 ± 0.14
surviving fraction ([8]; 1.2 nM): 1.09 ± 0.052
surviving fraction ([8]; 3.7 nM): 0.945 ± 0.04
surviving fraction ([8]; 11.1 nM): 0.737 ± 0.1
surviving fraction ([8]; 33.3 nM): 0.546 ± 0.034
surviving fraction ([8]; 100 nM): 0.317 ± 0.0045
surviving fraction ([8]; 300 nM): 0.161 ± 0.039
surviving fraction ([9]; 0.4 nM): 1.13 ± 0.11
surviving fraction ([9]; 1.2 nM): 1.2 ± 0.052
surviving fraction ([9]; 3.7 nM): 1.08 ± 0.096
surviving fraction ([9]; 11.1 nM): 0.783 ± 0.13
surviving fraction ([9]; 33.3 nM): 0.638 ± 0.024
surviving fraction ([9]; 100 nM): 0.502 ± 0.022
surviving fraction ([9]; 300 nM): 0.45 ± 0.087
surviving fraction ([10]; 0.4 nM): 1.04 ± 0.15
surviving fraction ([10]; 1.2 nM): 1.21 ± 0.084
surviving fraction ([10]; 3.7 nM): 1.16 ± 0.014
surviving fraction ([10]; 11.1 nM): 0.994 ± 0.16
surviving fraction ([10]; 33.3 nM): 0.575 ± 0.0076
surviving fraction ([10]; 100 nM): 0.247 ± 0.07
surviving fraction ([10]; 300 nM): 0.233 ± 0.032
surviving fraction ([11]; 0.4 nM): 1.43 ± 0.017
surviving fraction ([11]; 1.2 nM): 1.46 ± 0.088
surviving fraction ([11]; 3.7 nM): 1.48 ± 0.057
surviving fraction ([11]; 11.1 nM): 1.23 ± 0.19
surviving fraction ([11]; 33.3 nM): 0.626 ± 0.052
surviving fraction ([11]; 100 nM): 0.171 ± 0.0094
surviving fraction ([11]; 300 nM): 0.108 ± 0.014
surviving fraction ([12]; 0.4 nM): 1 ± 0.055
surviving fraction ([12]; 1.2 nM): 0.983 ± 0.031
surviving fraction ([12]; 3.7 nM): 0.947 ± 0.15
surviving fraction ([12]; 11.1 nM): 0.748 ± 0.15
surviving fraction ([12]; 33.3 nM): 0.535 ± 0.083
surviving fraction ([12]; 100 nM): 0.567 ± 0.021
surviving fraction ([12]; 300 nM): 0.384 ± 0.061
surviving fraction ([13]; 0.4 nM): 0.96 ± 0.06
surviving fraction ([13]; 1.2 nM): 0.925 ± 0.12
surviving fraction ([13]; 3.7 nM): 0.908 ± 0.017
surviving fraction ([13]; 11.1 nM): 0.685 ± 0.053
surviving fraction ([13]; 33.3 nM): 0.422 ± 0.024
surviving fraction ([13]; 100 nM): 0.205 ± 0.014
surviving fraction ([13]; 300 nM): 0.1423 ± 0.00064
surviving fraction ([14]; 0.4 nM): 0.94 ± 0.024
surviving fraction ([14]; 1.2 nM): 0.896 ± 0.042
surviving fraction ([14]; 3.7 nM): 1.02 ± 0.073
surviving fraction ([14]; 11.1 nM): 0.913 ± 0.055
surviving fraction ([14]; 33.3 nM): 0.59 ± 0.046
surviving fraction ([14]; 100 nM): 0.196 ± 0.02
surviving fraction ([14]; 300 nM): 0.0607 ± 0.0042
